Source: patent publication US6605639B1, “Ligands of nuclear receptor” (Nuclear Receptor Research, Ltd., priority 1998, dated 2003)

Key:
[1] = molecular target: T1, RAR (Homo sapiens, UniProt P10276); assay: RAR reporter gene (luciferase) transfer assay in COS-1 cells; type: cell-based; details: control lot = 1
T1 construct: expressed in transfected cells; host or cells: COS-1 cells
T1 sequence (P10276 1-462): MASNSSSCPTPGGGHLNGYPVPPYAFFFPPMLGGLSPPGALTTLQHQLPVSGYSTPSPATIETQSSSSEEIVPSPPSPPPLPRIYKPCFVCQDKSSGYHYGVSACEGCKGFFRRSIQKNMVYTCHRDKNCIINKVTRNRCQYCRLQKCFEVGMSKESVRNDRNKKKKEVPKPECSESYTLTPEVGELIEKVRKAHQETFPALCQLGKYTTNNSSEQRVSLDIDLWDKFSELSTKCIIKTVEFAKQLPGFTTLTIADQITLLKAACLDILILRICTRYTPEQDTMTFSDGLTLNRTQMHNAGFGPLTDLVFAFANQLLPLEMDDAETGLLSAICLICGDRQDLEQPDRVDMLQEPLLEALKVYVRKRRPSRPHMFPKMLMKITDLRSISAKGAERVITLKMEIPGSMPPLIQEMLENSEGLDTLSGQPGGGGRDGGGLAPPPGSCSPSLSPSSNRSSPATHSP
Source text: Each value means the degree of increase in the luciferase activity, which is expressed by referring the luciferase activity in the control lot as to 1, caused by the addition of the corresponding compound.
As a substitute for a plasmid containing a luciferase gene under the regulation in expression by RXR response element (pRXRL:RXRE-SV40 luciferase), and the RXRα expression plasmid (pRXRα); a plasmid containing a luciferase gene under the regulation in expression by RXR response element (pRARL:RASE-SV40 luciferase), and a […] (pRARα) were transferred into COS-1 cells. Transfectants with these plasmids and the compound of the present invention (concentration: 10^−4 to 10^−7 M) were added to the culture.
(§1) After sucking off the medium from the Petri dish, […] of a cultured cell lysing solution (25 mM Tris phosphate buffer (pH 7.8), 2 mM 1,2-diaminocyclohexane-N, N,N′,N′-tetraacetate, 10% glycerol, 1% Triton X-100) was added and the cells were peeled off with a rubber policeman and collected. After completely disrupting the cells by freezing and melting, the cells were centrifuged at 4° C. (15,000 rpm, 2 min) and the supernatant thus obtained was employed as a sample for measurement. To 20 ml of the supernatant, 100 ml of a luciferase substrate solution (2.14 mg of Co-A, 100 ml of 470 mM D-Luciferin, 200 ml of 530 mM ATP, 2 ml of DTT-Tricine buffer (pH 7.8)) was added and the fluorescence intensity was measured with a luminometer (ATTO Luminosensor AB-2000). To measure the β-galactosidase for determining the gene transfer efficiency, using a Luminescent β-galactosidase detection kit II (Clontech), fluorescence intensity was measured by a luminometer.

[2] = test system: male Wistar rats; assay: Sterol balance and bile acid excretion in rats; type: in vivo, rat; details: High cholesterol feed
Experimental: Feed-origin cholesterol and neutral sterol and acidic sterol in the feces of rats, to which the compounds of the present invention had been administered, were determined to monitor sterol balance and changes in the bile acid composition in feces. […] Further, the bile was sampled with the passage of time from rats having been subjected to cholangiostomy and bile acids thereof were determined. […] Male Wistar rats weighting about 250 g were divided into groups each having 6 to 8 animals. […] […] The feces were collected on the days 6 and 10. Then sterols were extracted therefrom in a conventional manner, acidic sterols and neutral sterols were determined. On the other hand, cholesterol in the feed was also determined so as to calculate the amount of feed-origin sterol.

[3] = test system: hereditary obese diabetic mice ob/ob and db/db; details: oral; cited from earlier work
[4] = test system: white rabbits; assay: Inhibition of arteriosclerosis in white rabbits fed high fat feed; details: 0.2% in high fat feed, 14 weeks
Experimental: Thus, a high fat feed was prepared by adding 10% of hardened coconut oil, 2% of cholesterol, 0.5% of bovine bile powder and 0.04% or 0.01% of ascochlorin to a powdery marketed standard white rabbit feed and molded the mixture into pellets. Separately, another high fat feed for the control group was prepared without using ascochlorin.
Twenty-four white rabbits weighing about 2 kg were divided into 4 groups at random. One of these groups was regarded as the control group, while the remaining 3 groups were respectively regarded as the clofibrate group, the ascochlorin 0.01% group and the ascochlorin 0.04% group at random. Then the experiment was carried out for 14 weeks.

[5] = molecular target: T2, human RXRα (Homo sapiens, UniProt P19793); assay: RXR reporter gene (luciferase) transfer assay in COS-1 cells; type: cell-based; details: 2 × 10^−5 M
T2 construct: expressed in transfected cells; host or cells: COS-1 cells
T2 sequence (P19793 1-462): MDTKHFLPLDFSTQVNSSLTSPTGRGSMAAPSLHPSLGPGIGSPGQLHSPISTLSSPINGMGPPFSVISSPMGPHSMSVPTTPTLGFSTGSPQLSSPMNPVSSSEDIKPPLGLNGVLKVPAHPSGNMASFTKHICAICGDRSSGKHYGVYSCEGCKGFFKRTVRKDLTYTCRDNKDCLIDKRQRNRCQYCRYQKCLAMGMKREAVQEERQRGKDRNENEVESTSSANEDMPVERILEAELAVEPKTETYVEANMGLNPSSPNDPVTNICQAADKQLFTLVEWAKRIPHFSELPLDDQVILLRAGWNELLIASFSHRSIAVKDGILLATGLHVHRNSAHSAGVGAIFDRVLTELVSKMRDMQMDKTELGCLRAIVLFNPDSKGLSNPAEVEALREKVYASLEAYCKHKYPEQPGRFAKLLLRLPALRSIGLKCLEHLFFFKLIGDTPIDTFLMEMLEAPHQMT
Experimental: A plasmid containing a reporter gene regulated in expression by RXR response element and an RXRα expression plasmid were transferred into COS-1 cells. Then these cells were treated with the compounds of the present invention such as ascochlorin.
Plasmids were transferred into COS-1 cells. Gene transfer was carried out in a conventional manner with the use of Lipofect AMINE reagent (Life Technologies). 1×10^5 cells were dispersed in 2 ml of Dulbecco's modified Eagle medium (DMEM) containing 10% of fetal calf serum and poured into a 35 mm Petri dish. After culturing in a CO2 incubator for 17 hours, the medium was removed and the cells adhering to the Petri dish were washed with phosphate-buffered saline (PBS). Then gene transfer was carried out by using Lipofect AMINE reagent. Namely, 500 ml of a minimum serum medium OptiMEM (Life Technologies) containing […] of a plasmid containing a luciferase gene under the regulation in expression by RXR response element (PRXRL: RXRE-SV40 luciferase; a reporter gene plasmid wherein RXRE has been ligated to SV40 promoter and luciferase cDNA, under the regulation in expression thereby, has been located downstream thereof); […] of an RXRα expression plasmid (pRXRα; a plasmid wherein human RXRα CDNA has been ligated to the downstream of a cytomegalovirus promoter to express human RXRα in mammalian cells); and 2 mg of a β-galactosidase gene plasmid to assess the gene transfer ratio (pCH110; Pharmacia) were pre-mixed with 500 ml of OptiMEM containing 50 ml of Lipofec AMINE, and the resultant mixture was maintained at room temperature for 15 minutes. 100 ml of this liquid mixture was mixed with 400 ml of OptiMEM, and the medium mixture was divided to the Petri dish. After maintaining in a CO2 incubator at 37° C. for 3 hours, the gene transfer medium was sucked off from the Petri dish and DMEM medium containing a test substance and 10% of serum (activated carbon-treated) was added thereto followed by culturing at 37° C. for 20 hours. […] Further, dimethyl sulfoxide (final concentration: 0.1%) was added as the solvent for the test substance.
as §1

[6] = test system: male ICR and ddY mice; assay: Serum total cholesterol lowering effect in mice; type: in vivo, mouse; details: 8 days; for Serum total cholesterol, % change: vs control; for Serum total cholesterol: Mean±SE
Source text: Effect of serum cholesterol lowering agents varies among animals. Namely, some agents which are effective on a certain animal exert […] on others. For example, compactin, which is an HMG CoA reductase inhibitor, cannot lower the serum total cholesterol level when administered to rodents such as rat or mouse. This is because even though HMG CoA reductase is inhibited in the rodent liver, the enzyme is biosynthesized in an amount in excess of that for compensating the inhibition so that the inhibitory effect is negated. Accordingly, it is favorable to calibrate the effect of lowering serum total cholesterol level in as many animals as possible. Concerning the effect of the compounds of the present invention on the serum total cholesterol level, an assay was made with the use of mice. After adding these compounds to a standard powdery feed for rat and mouse, the resultant mixtures were molded into pellets and given for 8 days to male ICR and ddY mice aged 5 weeks. In the afternoon of the day 8, the blood of each animal was collected from the heart and the total cholesterol in the serum was determined. The doses were determined as the maximum dose, in which body weight gain was not suppressed after orally administering for 1 week, and as the ¼ dose thereof.
Each value is represented in Mean±SE (n=10). a) In the case of Compound-1, the control group consisted of 23 animals while the 0.04% and 0.01% groups each consisted of 12 animals.

[7] = test system: male Wistar rats; assay: Oral administration of Compound-5 to rats: toxicity and Compound-1 in the blood
Experimental: Male Wistar rats (n=4) weighing about 200 g were employed and the concentration of Compound-1 contained in the serum was expressed in mean±SE (FIG. 9).
In FIG. 9, open circles show a case wherein Compound-5 was solubilized with HCO-60 and orally administered in a dose of 2 mg/kg.
Solid circles show a case wherein Compound-5 was suspended in an acacia solution and orally administered in a dose of 20 mg/kg. Per part of the serum collected with the passage of time, ethanol containing 1% of acetic acid was added and the mixture was allowed to stand in the dark at room temperature for 7 days. Then Compound-1 was determined by high performance liquid chromatography.
Open squares show a case wherein Compound-5 was suspended in an acacia solution and orally administered. Then the blood was collected at definite points and Compound-1 was determined by high performance liquid chromatography immediately thereafter. […] Separately, Compound-5 suspended in an acacia solution was orally administered to rats having been cannulated into the portal vein. Then the portal blood was collected with the passage of time and Compound-1 was determined.

[8] = test system: rats given streptozotocin; assay: Relief of onset of streptozotocin-induced diabetes; type: in vivo, rat; details: male SD rats, streptozotocin 50 mg/kg i.v.; 10 mg/kg/day oral, 14 days from 24 hours after; Mean ± SE
Experimental: Eighteen male Wistar rats weighing about 200 g were divided into 3 groups at random. To the animals of 2 groups, 45 mg/kg of streptozotocin was intravenously administered. One of these groups was regarded as a control group, while the other was regarded as the Compound-6 administration group. To the remaining 1 group which was regarded as the normal control group, a 1/10 M citrate buffer (pH 3.5) […] was intravenously administered. Immediately after the administration of streptozotocin, a suspension of Compound-6 in acacia was orally administered once a day continuously for 10 days in a dose of 20 mg/kg/day. To other groups, an acacia solution alone was administered. After fasting for 6 hours after the final administration, blood was collected from the heart of each animal and the blood glucose level and the blood insulin level were measured. As the data given in Table 7a show, the oral administration of Compound-6 inhibited an increase in the blood glucose level and a decrease in the blood insulin level.
Eighteen male SD rats weighing about 250 g were divided into 3 groups at random. […] To the normal control group and the streptozotocin control group, the acacia solution alone was administered orally. After fasting for 6 hours after the final administration, blood was collected from the heart of each animal and the blood glucose level and the blood insulin level were measured. As the data given in Table 7b show, the oral administration of Compound-5 inhibited an increase in the blood glucose level and a decrease in the blood insulin level.

CC1=C(/C=C/C(C)=C/C=C/C(C)=C/C(=O)O)C(C)(C)CCC1 [All-trans retinoic acid, reference compound]
degree of increase in the luciferase activity, RAR vector ([1]; 10^−7 M): 46

CC(/C=C/C1(C)C(C)CCC(=O)C1C)=C\Cc1c(O)c(C=O)c(C)c(Cl)c1OCCCC(=O)O (centres unmarked) [compound 16]
Sterol balance ([2]; administration 5 days): +15.12 mg/day
Sterol in feces, Acidic sterol ([2]; administration 5 days): 8.67 mg/day
Sterol in feces, Cholesterol ([2]; administration 5 days): 246.30 mg/day
Sterol in feces, Coprosterol ([2]; administration 5 days): 41.05 mg/day
excretion increase ([2]; administration 5 days): 8.95 mg/day
Sterol balance ([2]; administration 10 days): +28.52 mg/day
Sterol in feces, Acidic sterol ([2]; administration 10 days): 9.93 mg/day
Sterol in feces, Cholesterol ([2]; administration 10 days): 233.08 mg/day
Sterol in feces, Coprosterol ([2]; administration 10 days): 58.27 mg/day
excretion increase ([2]; administration 10 days): 34.07 mg/day

Cc1cc2c(cc1C1(c3ccc(C(=O)O)cn3)CC1)C(C)(C)CCC2(C)C [LG100268]
blood glucose levels, serum neutral fat levels and serum insulin levels [3]: drastically lower

CCOC(=O)C(C)(C)Oc1ccc(Cl)cc1 [clofibrate, reference compound]
animals died from circulatory insufficiency due to obstruction in the coronary artery [4]: 2 animals among six

COc1c(C=O)c(C)c(Cl)c(O)c1CC=C(C)C=CC1(C)C(C)CCC(=O)C1C (centres unmarked) [Compound-10, 2-O-methylASC]
fold increase in luciferase reporter activity (control = 1) [5]: 1.45
degree of increase in the luciferase activity, RXR vector ([5]; control lot = 1): 58
degree of increase in the luciferase activity, RAR vector ([1]; 2 × 10^−5 M): 40
Serum total cholesterol, % change ([6]; 0.01% in feed): −30%
Serum total cholesterol ([6]; 0.01% in feed): 130 ± 4.5 mg/dL
Serum total cholesterol, % change ([6]; 0.04% in feed): −34%
Serum total cholesterol ([6]; 0.04% in feed): 122 ± 3.0 mg/dL

COc1c(Cl)c(C)c(C=O)c(OC)c1CC=C(C)C=CC1(C)C(C)CCC(=O)C1C (centres unmarked) [compound 7, 2,4-dimethylASC]
Serum total cholesterol, % change ([6]; 0.04% in feed): −31%
Serum total cholesterol ([6]; 0.04% in feed): 120 ± 5.9 mg/dL

CC(=O)Oc1c(Cl)c(C)c(C=O)c(O)c1CC=C(C)C=CC1(C)C(C)CCC(=O)C1C (centres unmarked) [Compound-5, acetylASC]
time within which all of the rats died following administration ([7]; 2 mg/kg oral, solubilized with HCO-60, n=4): ≤ 1 h
lethality ([7]; rat, suspended in a 2% acacia solution, 200 mg/kg): not killed
free Compound-1 in the blood after administration of Compound-5 ([7]; suspended in acacia solution, oral, determined immediately by HPLC): no free Compound-1 was detected
Blood glucose [8]: 237.2 ± 26.31 mg/dL
Serum IRI [8]: 15.5 ± 2.16 mU/ml
Serum total cholesterol, % change ([6]; 0.01% in feed): −13%
Serum total cholesterol ([6]; 0.01% in feed): 132 ± 6.1 mg/dL
Serum total cholesterol, % change ([6]; 0.04% in feed): −27%
Serum total cholesterol ([6]; 0.04% in feed): 117 ± 3.3 mg/dL

CC(/C=C/[C@@]1(C)[C@H](C)CCC(=O)[C@@H]1C)=C\Cc1c(O)c(C=O)c(C)c(Cl)c1OC(=O)c1cccnc1 [compound 19, 4-O-nicotinoylASC]
Serum total cholesterol, % change ([6]; 0.01% in feed): −13%
Serum total cholesterol ([6]; 0.01% in feed): 91 ± 4.5 mg/dL
Serum total cholesterol, % change ([6]; 0.04% in feed): −16%
Serum total cholesterol ([6]; 0.04% in feed): 88 ± 3.0 mg/dL
